Assay results published in publication PMC8896685 (PLoS ONE, 2022).
Numbered stars: 1 amine (or outer) side, 2 acyl side, 3 side chain; on linkers, the order of the positions; unused ones are H or OH. Square brackets hold non-standard residues; d marks the D form. Side chains are listed from the residue outwards. Peptide text beside a SMILES is read from it. * marks the point of attachment. C18 diacid = O=C(O)CCCCCCCCCCCCCCCCC(=O)*; γGlu = O=C(O)[C@H](CCC(=O)[*:2])N[*:1]; Desaminohistidyl = O=C(CCc1c[nH]cn1)*; AEEA = NCCOCCOCC(=O)O; Aib = CC(C)(N)C(=O)O

What was measured:
Human GLP-1R = Human GLP-1R (Homo sapiens, UniProt P43220); experiment: Receptor binding, SPA competitive binding assay; settings: SPA competitive binding on BHK cell membranes, [125I]-GLP-1(7–36)-NH2 tracer, 1% species specific plasma, 2 h 30°C; value (95% CI)
Method: (§1) The binding assay was performed on cell membranes in the presence of 1% (v/v) species-specific heparin-treated pooled plasma (Bioreclamation IVT, Westbury, NY) diluted in assay buffer (50 mM HEPES supplemented with 5 mM EGTA, 5 mM MgCl2, and 0.005% (v/v) Tween 20, pH7.4). […] Cells stably expressing an individual receptor of interest were grown at 5% CO2, 37°C in DMEM (supplemented with 10% FCS, 0.5 mg/ml G418 and 0.3 mg/ml hygromycin). Membrane preparations were made from cells harvested at approximately 80% confluence, washed and homogenized in 20 mM HEPES with 0.1 mM EDTA, pH 7.4. Protein concentration was determined, and the membranes were stored at -80°C until use. The membrane binding assay was performed in a 96-well OptiPlate (PerkinElmer) in a total volume of 200 μl. Test compounds were dissolved in 80% DMSO and further diluted in assay buffer. 50 μl of diluted plasma was added to the assay plate wells followed by addition of test compounds (25 μl), cell membranes (50 μl, 0.06 mg/ml), SPA beads (20 mg/ml in assay buffer) and radioligand (60,000 cpm/well, corresponding to 0.06 nM; 2200 Ci/mmol. Each assay plate was incubated for 2 h at 30°C, centrifuged at 1500 rpm for 10 minutes and counted in a TopCount NXT instrument (PerkinElmer).
(§2) For the receptor binding assays, logIC50 values were calculated using non-linear regression analysis. The error estimation was reported as the 95% confidence interval. […] The calculations were performed in GraphPad Prism 6.4 (GraphPad, San Diego, CA) and error estimation was expressed as the 95% confidence interval. […] Averages, error estimation, ratios and plasma shifts were all calculated on logIC50 or logEC50 values and transformed to the anti-log values for reporting purposes.

Rat GLP-1R = target: T1, Rat GLP-1R (Rattus norvegicus, UniProt P32301); experiment: Receptor binding, SPA competitive binding assay; settings: SPA competitive binding on BHK cell membranes, [125I]-GLP-1(7–36)-NH2 tracer, 1% species specific plasma, 2 h 30°C; value (95% CI)
T1 construct: a plasmid encoding either the glucagon receptor or the GLP-1 receptor from the relevant species; expressed in transfected cells
T1 sequence (P32301 22-463): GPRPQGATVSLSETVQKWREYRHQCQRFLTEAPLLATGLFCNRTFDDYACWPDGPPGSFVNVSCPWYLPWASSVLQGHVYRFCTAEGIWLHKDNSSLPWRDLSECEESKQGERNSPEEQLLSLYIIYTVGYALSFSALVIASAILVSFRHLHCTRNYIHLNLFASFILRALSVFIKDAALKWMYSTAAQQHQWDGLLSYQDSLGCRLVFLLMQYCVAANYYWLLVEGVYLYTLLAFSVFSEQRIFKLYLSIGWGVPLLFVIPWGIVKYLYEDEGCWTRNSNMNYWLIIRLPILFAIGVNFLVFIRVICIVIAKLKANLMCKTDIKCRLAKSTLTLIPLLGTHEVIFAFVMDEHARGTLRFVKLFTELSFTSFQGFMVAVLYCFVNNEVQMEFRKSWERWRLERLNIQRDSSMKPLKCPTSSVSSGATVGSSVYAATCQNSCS
Method: as §1, §2

DIO mice [1] = experiment: Subchronic effect on body weight, body composition and food intake in DIO mice; format: in vivo, mouse; settings: 1–30 nmol/kg s.c. once daily, 4 weeks, plateau during last weeks
Text: Male C57Bl/6J mice were purchased from Jackson Lab (Bar Harbour, ME) or Taconic, (Denmark). Male Sprague Dawley rats were purchased from Taconic (Denmark). Lean animals were fed regular chow diet (Altromin 1324, Brogaarden, Denmark). Obese animals were fed a high-fat diet, 45% kcal from fat (D12492, Research Diets, New Brunswick, NJ) from the age of 4–6 weeks in order to obtain a diet induced obese (DIO) phenotype. Animals were housed under temperature and humidity-controlled conditions in a 12:12 hr light:dark cycle (lights on at 6 a.m.). Rats were housed three per cage during high fat feeding and were single housed five weeks prior to study. Mice were single housed, two per cage, with a partitioning wall where possible. All animals had ad libitum access to diet and water, except when fasted prior to experimental procedures. Animals were acclimatized to study conditions (energy expenditure cages, daily mock handling etc) at least one week prior to first dose. […] At the time of study, animals were 20–30 weeks old with a body weight of 45–50 g (DIO mice) or approximately 600 g (DIO rats).
(§3) DIO mice received s.c. injections once daily for 4–5 weeks. Animals were dosed at different times of day to allow for assessment of glucose tolerance and other metabolic parameters at same time of day but at different time points in relation to dosing. […] Body composition was assessed in conscious animals by Magnetic Resonance (MR) scanning prior to initiation of treatment and at the end of the treatment period. Steady-state plasma parameters were assessed in non-fasted animals. Additional DIO mice (n = 4) were included for verification of 24-h peptide exposure in steady state. The mice received s.c. doses daily for 2 weeks (13 days) with 3 nmol/kg NN1177; 5 nmol/kg NN1151 or 5 nmol/kg NN1359, where after plasma sampled after t = 5 h (NN1177) or 6 h (NN1151, NN1359), 10 h (all co-agonists) and 24 h (all co-agonists) post-dosing was analysed for exposure.
(§4) Analogues were tested for subchronic effect in two different set-ups. […] The Cmax and Cmin animals were included in separate treatment groups and evaluated head-to-head for glucose tolerance and additional metabolic parameters at the end of the treatment period. […] IPGTT was performed as described above, but additionally blood was sampled from vena facialis of conscious animals at t = 210 min relative to the administration of glucose for exposure analysis.
(§5) IPGTT was performed as described above.
All in vivo data are presented as mean ±SEM. […] For the comparison of NN1177, NN1151 and NN1359 on glucose tolerance, vehicle-subtracted values were used to enable comparison across studies.

DIO mice [2] = experiment: Subchronic effect on glucose tolerance in DIO mice (IPGTT at steady state); format: in vivo, mouse; settings: steady state; for Glucose tolerance (IPGTT) vs vehicle: p<0.001
Method: Compound exposure was measured by Luminescence Oxygen Channeling Immunoassay (LOCI). […] The three reactants were combined with the analyte and formed a two-sited immuno-complex. Illumination of the complex released singlet oxygen […] from the donor beads. They were channeled into the acceptor beads and triggered a chemiluminescence response which was measured in an EnVision plate reader (PerkinElmer). The amount of light was proportional to the concentration of the analyte. As calibrators, a dilution line of the relevant analyte in rat/mouse plasma was included.
Animals were fasted for 5–6 h prior to intraperitoneal (i.p.) injection of 2 g/kg glucose. Blood glucose was analysed on whole blood from the tail vein of conscious animals using a Biosen S-line glucose analyzer (EKF-diagonistic Gmbh, Barleben, Germany) by the glucose oxidase method, at basal and at t = 15, 30, 60, 90, 180 min post glucose administration.
as §3, §4, §5

[3] = after 4 weeks daily s.c. dosing, Cmin (24 h post dosing)

Chain of Human GLP-1R (P43220 24-463): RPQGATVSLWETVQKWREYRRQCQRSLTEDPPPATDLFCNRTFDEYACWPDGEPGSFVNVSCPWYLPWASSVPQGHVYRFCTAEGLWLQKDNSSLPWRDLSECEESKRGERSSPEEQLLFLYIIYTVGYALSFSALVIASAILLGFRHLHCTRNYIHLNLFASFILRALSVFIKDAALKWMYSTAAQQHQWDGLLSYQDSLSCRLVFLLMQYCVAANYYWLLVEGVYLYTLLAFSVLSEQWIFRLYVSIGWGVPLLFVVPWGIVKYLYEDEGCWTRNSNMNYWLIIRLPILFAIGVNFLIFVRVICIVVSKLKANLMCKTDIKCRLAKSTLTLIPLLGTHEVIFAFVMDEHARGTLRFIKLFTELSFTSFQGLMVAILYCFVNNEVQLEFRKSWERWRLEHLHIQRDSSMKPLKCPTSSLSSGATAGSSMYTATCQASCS

IC50 (Human GLP-1R): 0.84 nM
IC50 (Rat GLP-1R): 2.06 nM
SMILES: CC[C@H](C)[C@H](NC(=O)[C@H](Cc1ccccc1)NC(=O)[C@H](CCC(=O)O)NC(=O)[C@H](CCCNC(=N)N)NC(=O)[C@H](C)NC(=O)[C@H](C)NC(=O)[C@H](CCC(N)=O)NC(=O)[C@H](CCC(=O)O)NC(=O)[C@H](CCC(=O)O)NC(=O)[C@H](CC(C)C)NC(=O)[C@H](Cc1ccc(O)cc1)NC(=O)[C@H](CCCCN)NC(=O)[C@H](CO)NC(=O)[C@@H](NC(=O)[C@H](CC(=O)O)NC(=O)[C@H](CO)NC(=O)[C@@H](NC(=O)[C@H](Cc1ccccc1)NC(=O)[C@@H](NC(=O)CNC(=O)[C@H](Cc1c[nH]cn1)NC(=O)C(C)(C)NC(=O)CCc1c[nH]cn1)[C@@H](C)O)[C@@H](C)O)C(C)C)C(=O)N[C@@H](C)C(=O)N[C@@H](Cc1c[nH]c2ccccc12)C(=O)N[C@@H](CC(C)C)C(=O)N[C@@H](CC(C)C)C(=O)N[C@@H](CCCCNC(=O)COCCOCCNC(=O)COCCOCCNC(=O)CC[C@H](NC(=O)CC[C@H](NC(=O)CCCCCCCCCCCCCCCCC(=O)O)C(=O)O)C(=O)O)C(=O)N[C@H](C(N)=O)[C@@H](C)O [NN1359] (Desaminohistidyl-[Aib]HGTFTSDVSKYLEEQAAREFIAWLLK([AEEA-AEEA-γGlu-γGlu-C18 diacid])T-NH2)
Body weight loss (DIO mice [1]): 10–30%
Glucose tolerance (IPGTT) vs vehicle (DIO mice [2]; after 3 weeks daily s.c. dosing, Cmax (5 h post dosing)): significantly improved
Basal blood glucose vs vehicle (DIO mice [2]; [3]): significantly improved
Glucose tolerance (IPGTT) vs vehicle (DIO mice [2]; [3]): significantly improved
